Data as given in paper PMC6528170 (Nature, 2009).
Like-named read-outs stand apart in the source and are kept apart here.

Experiments:
Get3 (S. cerevisiae) [1] = molecular target: Get3 (S. cerevisiae) (Saccharomyces cerevisiae, UniProt Q12154, D57N); experiment: NADH-coupled microplate ATPase assay; format: biochemical; conditions: Tris pH 7.5, 5 mM MgCl2, 20 mM NaCl, 30 °C, 2 μM Get3, 0.02% n-dodecyl-β-D-maltopyranoside
Get3 (S. cerevisiae) [2] = molecular target: T1, Get3 (S. cerevisiae) (Saccharomyces cerevisiae, UniProt Q12154); experiment: NADH-coupled microplate ATPase assay; format: biochemical; conditions: Tris pH 7.5, 5 mM MgCl2, 20 mM NaCl, 30 °C, 2 μM Get3, 0.02% n-dodecyl-β-D-maltopyranoside
T1 sequence (Q12154 1-354): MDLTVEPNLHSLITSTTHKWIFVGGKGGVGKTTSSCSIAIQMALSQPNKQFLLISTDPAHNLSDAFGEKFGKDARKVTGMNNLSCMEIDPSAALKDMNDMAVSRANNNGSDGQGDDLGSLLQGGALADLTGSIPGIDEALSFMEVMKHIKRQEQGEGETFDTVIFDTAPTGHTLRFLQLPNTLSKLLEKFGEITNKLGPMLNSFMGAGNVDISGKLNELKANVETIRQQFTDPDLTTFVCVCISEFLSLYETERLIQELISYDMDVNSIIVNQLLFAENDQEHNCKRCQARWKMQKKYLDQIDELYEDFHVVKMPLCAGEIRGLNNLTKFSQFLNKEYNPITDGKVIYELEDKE

crystal structure [3] = molecular target: the molecule itself; experiment: crystal structure
crystal structure [4] = molecular target: the molecule itself; experiment: crystal structure; remark: listed apart in the source

Get3 (S. cerevisiae) (Saccharomyces cerevisiae, UniProt Q12154, D57N), sequence (Q12154 whole entry D57N): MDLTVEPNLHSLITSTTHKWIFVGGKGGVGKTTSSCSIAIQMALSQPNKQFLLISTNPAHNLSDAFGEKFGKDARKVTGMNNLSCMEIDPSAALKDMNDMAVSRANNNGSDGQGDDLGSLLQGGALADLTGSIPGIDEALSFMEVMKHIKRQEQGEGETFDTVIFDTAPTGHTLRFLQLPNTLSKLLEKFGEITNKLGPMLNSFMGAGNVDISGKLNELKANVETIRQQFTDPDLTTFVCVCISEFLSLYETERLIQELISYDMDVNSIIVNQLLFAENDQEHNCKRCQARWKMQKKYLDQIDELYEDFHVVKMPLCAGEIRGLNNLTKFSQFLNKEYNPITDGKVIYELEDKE

## Nc1ncnc2c1ncn2[C@@H]1O[C@H](COP(=O)(O)OP(=O)(O)OP(=O)(O)O)[C@@H](O)[C@H]1O [ATP]
Get3 (S. cerevisiae) [1]
  NADH-coupled microplate ATPase assay: an Asp57Asn mutant is defective for ATP hydrolysis
Get3 (S. cerevisiae) [2]
  apparent Km,ATP: used to calculate Vmax and apparent Km,ATP values

B1: Saccharomyces cerevisiae Get3 (wild type) (natural protein, S. cerevisiae, UniProt Q12154 1-354, looked up)
chain: MDLTVEPNLHSLITSTTHKWIFVGGKGGVGKTTSSCSIAIQMALSQPNKQFLLISTDPAHNLSDAFGEKFGKDARKVTGMNNLSCMEIDPSAALKDMNDMAVSRANNNGSDGQGDDLGSLLQGGALADLTGSIPGIDEALSFMEVMKHIKRQEQGEGETFDTVIFDTAPTGHTLRFLQLPNTLSKLLEKFGEITNKLGPMLNSFMGAGNVDISGKLNELKANVETIRQQFTDPDLTTFVCVCISEFLSLYETERLIQELISYDMDVNSIIVNQLLFAENDQEHNCKRCQARWKMQKKYLDQIDELYEDFHVVKMPLCAGEIRGLNNLTKFSQFLNKEYNPITDGKVIYELEDKE
Crystal structure [3]
  stoichiometry N: 2

B2: Schizosaccharomyces pombe Get3 (natural protein, S. pombe, UniProt Q9P7F8 1-329, looked up)
chain: MSFDPLPGTLENLLEQTSLKWIFVGGKGGVGKTTTSCSLAIQMSKVRSSVLLISTDPAHNLSDAFGTKFGKDARKVPGFDNLSAMEIDPNLSIQEMTEQADQQNPNNPLSGMMQDLAFTIPGIDEALAFAEILKQIKSMEFDCVIFDTAPTGHTLRFLNFPTVLEKALGKLGGLSSRFGPMINQMGSIMGVNANEQDLFGKMESMRANISEVNKQFKNPDLTTFVCVCISEFLSLYETERMIQELTSYEIDTHNIVVNQLLLDPNTTCPQCMARRKMQQKYLAQIEELYEDFHVVKVPQVPAEVRGTEALKSFSEMLVKPYVYPTSGKE
Crystal structure [4]
  stoichiometry N: 2
